Test results from PubChem BioAssay (NCI).
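Dose response: 5 concentrations. Exposure: 48 h. Format: 96-well plates. Endpoint: linear interpolation; highest concentration if not reached. Abbreviation: GI50, concentration required for 50% inhibition of growth. TGI marks complete inhibition of growth.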

Experiments:
Assay in all cases: NCI tumour cell line growth inhibition, 48 h
SNB-19 CNS = test system: SNB-19 CNS
UACC-257 melanoma = test system: UACC-257 melanoma
HCT-116 colon = test system: HCT-116 colon
SNB-75 CNS = test system: SNB-75 CNS
CCRF-CEM leukemia = test system: CCRF-CEM leukemia
SK-MEL-5 melanoma = test system: SK-MEL-5 melanoma
ACHN renal = test system: ACHN renal
MDA-MB-231 breast = test system: MDA-MB-231 breast
HCC-2998 colon = test system: HCC-2998 colon
MDA-MB-435 = test system: MDA-MB-435

SMILES	GI50 (SNB-19 CNS) [µM]	TGI (SNB-19 CNS) [µM]	GI50 (UACC-257 melanoma) [µM]	TGI (UACC-257 melanoma) [µM]	GI50 (HCT-116 colon) [µM]	TGI (HCT-116 colon) [µM]	GI50 (SNB-75 CNS) [µM]	TGI (SNB-75 CNS) [µM]	GI50 (CCRF-CEM leukemia) [µM]	TGI (CCRF-CEM leukemia) [µM]	GI50 (SK-MEL-5 melanoma) [µM]	TGI (SK-MEL-5 melanoma) [µM]	GI50 (ACHN renal) [µM]	TGI (ACHN renal) [µM]	GI50 (MDA-MB-231 breast) [µM]	TGI (MDA-MB-231 breast) [µM]	GI50 (HCC-2998 colon) [µM]	TGI (HCC-2998 colon) [µM]	GI50 (MDA-MB-435) [µM]	TGI (MDA-MB-435) [µM]
CCN1C(=O)N(CC)C2C1NN=c1s/c(=C\c3cc4ccccc4[nH]3)c(=O)n12 (stereo not given)	0.055	15.8	12.2	> 100	< 0.01	> 37.2	< 0.0149	0.641	0.0208	> 100	0.0202	0.063	< 0.0157	20.3	0.0118	27	0.0382	> 100	–	–
CCOC(=O)c1nc(-c2ccccc2)oc1OCC	–	> 100	–	–	–	> 100	–	> 100	–	> 100	–	> 100	–	–	–	–	–	> 100	–	–
O=C1c2ccccc2CC1C1(O)C(=O)Nc2ccccc21 (stereo not given)	–	> 100	–	> 100	–	> 100	–	> 100	–	–	–	> 100	–	> 100	–	–	–	–	–	–
N.N.NCCCCCCN.O=C([O-])CC(=O)[O-].O=C([O-])CC(=O)[O-].[Pt+4].[Pt+4]	> 72.1	> 100	> 100	> 100	> 100	> 100	38.7	> 100	15.6	> 100	> 100	> 100	36.1	> 100	–	–	> 100	> 100	–	–
CCC1CCc2c(OC)ccc(OCC(=O)O)c2C1=O (stereo not given)	–	> 100	–	> 100	–	–	–	> 100	–	> 100	–	> 100	–	> 100	–	–	–	> 100	–	–
C=CCNC(=O)NCCCC(NC(C)=O)C(=O)NCc1ccccc1 (stereo not given)	–	> 100	–	> 100	–	–	–	> 100	–	> 100	–	> 100	–	> 100	–	–	–	–	–	–
CC1CCC(C(C)C)C(O[C@@H]2OC(=O)C[C@@H]2Sc2ccccc2)C1 (stereo not given in full)	–	> 100	–	39.3	–	74	–	98.3	–	26.8	–	30.3	–	41.7	–	–	–	55.9	–	–
COc1ccc(-c2nn(-c3cccc(Cl)c3)cc2-c2cc(-c3ccccc3)nc(N)n2)cc1	12.7	43.8	2.58	8.51	–	–	4.32	22	2.13	6.63	7.88	28.4	4.58	15.8	–	–	2.25	4.53	–	–
C=C1CCC2[C@@H](CCC3[C@]2(C)CCC[C@]3(C)C(=O)OC)C1CCO (stereo not given in full)	–	28	–	18.6	–	19.2	–	19.7	–	33.1	–	17.5	–	29.4	–	–	–	–	–	–
C=C1CCc2occ(C)c2C2C1C1=C(CC(C)C1=O)C1OC12C (stereo not given)	–	> 100	–	> 100	–	> 100	–	> 100	–	> 100	–	> 100	–	> 100	–	–	–	> 100	–	–
CCOc1ccccc1/C=N\N=C(\N)N/N=C/c1ccccc1OCC	4.49	> 100	4.37	> 100	3.12	> 100	1.78	8.05	3.06	> 100	1.63	> 100	3.82	> 100	4.69	> 100	–	–	–	–
Cc1ccc(Sc2ccc(C)cc2[N+](=O)[O-])c([N+](=O)[O-])c1	–	> 100	–	> 10	–	> 100	–	> 100	–	> 100	–	> 100	–	> 100	–	–	–	> 100	–	–
Cc1cn2c(/C=N/Nc3ccccn3)c(-c3ccc(Cl)c([N+](=O)[O-])c3)nc2s1	12.4	32.7	21.3	> 50	8.56	18.4	–	–	–	–	43.9	> 50	6.89	15.5	6.73	18.2	> 50	> 50	30.3	> 50
COC(=O)C1=C(C(=O)OC)SC(=C(N=Nc2ccccc2)c2ccccc2)S1	–	> 100	–	> 100	–	> 100	–	> 100	–	> 100	–	> 100	–	> 100	–	–	–	> 100	–	–
CCN(CC)CC(C(=O)Nc1c(C)cccc1C)/C(C)=N\NC(=O)c1ccncc1 (stereo not given)	–	> 100	–	> 100	–	> 100	–	> 100	–	–	–	> 100	–	> 100	–	–	–	> 100	–	–
CC(=O)Nc1ccc(/C=C/C(=O)c2sc(-c3nc(C)c(C(=O)/C=C/c4ccc(NC(C)=O)cc4)s3)nc2C)cc1	–	> 100	–	> 100	–	> 100	–	–	–	> 100	–	–	–	> 100	–	–	–	> 100	–	–
CC#CC1C(OC(=O)c2ccccc2)CCCC1(CI)N=[N+]=[N-] (stereo not given)	–	–	–	> 100	–	> 100	–	> 100	–	> 100	–	42.2	–	> 100	–	–	–	> 100	–	–
C=CCC(OCCOCC)c1cc(OCCOCC)ccc1OC (stereo not given)	–	> 100	–	> 100	–	–	–	> 100	–	> 100	–	> 100	–	> 100	–	–	–	> 100	–	–
O=C1NC2C=CN(Cc3ccccc3)C=C2C(=O)N2CCCC12 (stereo not given)	–	> 100	–	> 100	–	> 100	–	> 100	–	> 100	–	> 100	–	> 100	–	–	–	> 100	–	–
O=C(Nc1nc(=S)c2c(ncn2CCO)[nH]1)c1ccccc1	–	> 100	–	> 100	–	> 100	–	> 100	–	> 100	–	> 100	–	> 100	–	–	–	–	–	–
CN(C(=O)c1ccncc1)c1ccccc1	–	> 100	–	> 100	–	> 100	–	> 100	–	–	–	> 100	–	> 100	–	> 100	–	> 100	–	> 100
